The subject of data set [1] is mice. The data set can be described thus: toxicity (isolated mice, intraperitoneal). The data set is classed as in vivo. Particulars: for LD-O (maximum non-lethal dose) / time to death: mice. Here is the method: (§1) The following text summarises a part of the results of the tests which were carried out with the products according to the invention, these products (unless otherwise stated) being administered intraperitoneally, in suspension in a gum solution (gum arabic), in a volume of 20 ml/kg in the case of mice and of 5 ml/kg in the case of rats.

Data set [2] deals with mice. In words: interaction with reserpine (hypothermia, ptosis). The data set is classed as in vivo. As to conditions: i.p.
In data set [3] the test system is mice. In words: interaction with oxotremorine (temperature, trembling, peripheral cholinergic symptoms). Type of data set: in vivo. As to conditions: mice, i.p.
The subject of data set [4] is mice. The data set can be described thus: traction (motor incoordination). Particulars: i.p. Type of data set: in vivo, mice (EVIC CEBA strain).
In data set [5] the test system is mice. In words: electrical shock (convulsing effects). Type of data set: in vivo, mice (EVIC CEBA strain). Particulars: mice, i.p. Here is the method:
as §1
(§2) The test is carried out on batches of 10 sensitive mice (EVIC CEBA strain), 30 minutes after the administration of CRL 40,373.
(§3) Batches of 10 mice are subjected to the test thirty minutes after having received CRL 40,385.

Data set [6] concerns mice. The data set can be described thus: spontaneous motility (actimeter). Type of data set: in vivo. As to conditions: i.p. The protocol: as §1
Thirty minutes after having been given CRL 40,373, the mice (6 per dose, 12 comparison animals) are placed in an actimeter, where their motility is recorded for half an hour.
Thirty minutes after having been given CRL 40,385, the mice are placed in actimeters where their motility is recorded for half an hour.

Data set [7] deals with mice. In words: motility reduced by habituation to a cage (residual motility). Type of data set: in vivo. As to conditions: i.p. Here is the method: as §1
Mice which have remained for 18 hours in the actimeters are given CRL 40,373. They are immediately replaced in their cages and, after a period of half an hour, their motility is recorded for 30 minutes (6 animals per dose, 12 comparison animals).
After remaining for 18 hours in the actimeters, the mice receive CRL 40,385. Immediately afterwards they are replaced in their cage and half an hour afterwards the recording of the motility starts and is continued for 30 minutes.

Data set [8] has as its system mice. The data set can be described thus: motility reduced by hypoxia treatment (motor recovery). The data set is classed as in vivo. Particulars: mice, i.p.
The next data set relates to central nervous system. The data set can be described thus: psychopharmacological study / behaviour. The data set is classed as in vivo, mice.
For data set [9], the system named is rats. The data set can be described thus: interaction with apomorphine (stereotype behaviour in rats). The data set is classed as in vivo. The protocol: as §1
Batches of six rats are each given a subcutaneous injection of apomorphine (0.5 mg/kg) 30 minutes after the administration of CRL 40,373.
Batches of 6 rats are given a subcutaneous injection of 0.5 mg/kg of apomorphine 30 minutes after the administration of CRL 40,385.

Data set [10] relates to rats. The data set can be described thus: interaction with amphetamine (stereotypies in rats). Type of data set: in vivo. The protocol:
as §1
30 minutes after the administration of CRL 40,373, amphetamine is injected intraperitoneally at a dose of 2 mg/kg.
Thirty minutes after the administration of CRL 40,385 the rats are given an intraperitoneal injection of 2 mg/kg of amphetamine (6 animals per dose).

The subject of data set [11] is mice. The data set can be described thus: four-plate test. The data set is classed as in vivo, mice (EVIC CEBA strain). Particulars: mice, i.p. The protocol:
as §1, §2, §3

Data set [12] deals with mice. In words: inter-group aggressiveness (number of fights). Type of data set: in vivo. As to conditions: mice, i.p., large/high dose. The protocol: as §1
After three weeks' residence in each of the halves of a cage divided by an opaque partition, the mice receive CRL 40,373 thirty minutes before being brought together by withdrawing the partition.
After 18 days' residence on either side of a partition separating their cage in the middle, groups of 3 mice receive CRL 40,385 and are brought together half an hour later by withdrawing the partition, and the number of fights which take place in the course of 15 minutes is noted.

The test system of a further data set is man. The data set can be described thus: clinical use in man. Particulars: tablet 100 mg, 1 to 3 tablets per day. The data set is classed as in vivo.
In data set [13] the test system is rats. The data set can be described thus: prolonged conditioning to take avoiding action (shuttle box). Type of data set: in vivo. The text has this: Rats placed in a shuttle box are conditioned to avoid an electric shock by changing sides. The shock is preceded by a sound and light stimulus lasting 3 seconds, which ceases when sides are changed or after 8 seconds. The sequence is repeated every 20 seconds. Animals conditioned for several tens of minutes show a percentage of avoidance which is close to 100%. They continue to be subjected to the stimulus […] and gradually they reach a state in which they are no longer able to change sides during the period of 3 seconds during which no shock is delivered.
As a first approximation, such an effect can be likened to a resumption of conditioned activity in a tired animal.
Rats placed in a "shuttle box" are conditioned to avoid an electric shock lasting 5 seconds, by changing sides. The shock is preceded, for 3 seconds, by a sound and light stimulus which ceases when the rat changes side, or at the end of 8 seconds. The sequence repeats every 20 seconds. […] They continue to be subjected to the stimulus every 20 seconds and gradually they no longer succeed in avoiding the shock.
CRL 40,438 is then administered and any resumption of the avoidance movements is followed until the effect ceases.

Molecules are shown by their SMILES. Entries after “also recorded” stand apart in the source; their conditions may differ. Where two headings read alike, the source gives them in different places.

We go through three molecules from patent publication US4151300A, “Acetohydroxamic acids” (Laboratoire L. Lafon, priority 1976, dated 1979).

As for `O=C(CCN1c2ccccc2Sc2ccccc21)N[O-].[Na+]`, the “LD-O (maximum non-lethal dose)” value with mice [1] (i.p.) is given as “greater than 256 mg/kg”. Besides, in the data set on mice [1] (i.p., 512 mg/kg), the time to death came to 24 h. For the same molecule, in the data set on mice [1] (i.p., 1,024 mg/kg), the time to death was found to be 0.583 h. Further, the reserpine-induced ptosis entry with mice [2] (128 and 32 mg/kg) is recorded as “aggravates the ptosis induced by reserpine”. Further, the reserpine-induced hypothermia result in the data set on mice [2] (high dose) is on record as “aggravates the hypothermia induced by reserpine”. Besides, in the data set on mice [3], the oxotremorine-induced trembling entry is on record as “does not alter the intensity or duration of the trembling movements induced by oxotremorine” and the “temperature (oxotremorine-induced hypothermia)” value is “contributes its effect to the hypothermia-inducing action of oxotremorine”. Also, the motor incapacity entry in the data set on mice [4] (mice, high doses (32 and 128 mg/kg)) is given as “substantial motor incapacity”. For the same molecule, the “lethal effects of the electric shock” value in the data set on mice [5] (high doses (32 and 128 mg/kg)) is on record as “increase in the lethal effects of the electric shock”. Besides, the motor activity entry in the data set on mice [6] (mice, from 8 mg/kg upwards) is on record as “reduction of the motor activity”. The “motility reduced by habituation to the cage” value (“motility reduced” for short) in the data set on mice [7] is reported as “not improved”. Besides, the “motor recovery after hypoxia/anoxia by pressure reduction” value with mice [8] is on record as “not improved”. For the same molecule, the “body temperature effect (product alone)” value in the data set on central nervous system (mouse, in vivo) was “hypothermia-inducing agent”.
As to `CCCCC(CCCC)(CCCC)C(=O)NO` [CRL 40,373, Tributylacetohydroxamic acid], the mortality result in the data set with mice [1] (isolated mice, i.p., 64, 128, 256, 512 and 1,024 mg/kg) is recorded as “No mortality whatsoever”. For the same molecule, the apomorphine-induced stereotypies entry with rats [9] (rats, i.p.) is given as “not influenced”. Further, the amphetamine-induced stereotypies result in the data set on rats [10] (rats, i.p.) is listed as “inhibits the amphetamine-induced stereotypies, this inhibition being proportional to the doses”. Moreover, in the data set with mice [2], the reserpine-induced hypothermia result is recorded as “not modified” and the reserpine-induced ptosis result is on record as “not modified”. Besides, the oxotremorine-induced trembling result with mice [3] was “no significant influence on the trembling caused by oxotremorine”. Besides, the “temperature (oxotremorine-induced hypothermia)” value in the data set on mice [3] (128 and 512 mg/kg, oxotremorine 0.5 mg/kg i.p.) is “exerts a hypothermia-inducing effect and aggravates the lowering of the temperature produced by oxotremorine”. Also, the “peripheral cholinergic symptoms of oxotremorine” value in the data set on mice [3] (high doses (128 and 512 mg/kg)) was “increases the hypersalivation and hyperlacrymation produced by oxotremorine”. For the same molecule, the “number of incorrect moves (four-plate test)” value in the data set on mice [11] is given as “does not cause an increase in the number of incorrect moves”. Also, in the data set on mice [4], the “motor incoordination / incapacity” value is given as “does not bring about any major motor incoordination”. In addition, the “convulsing effects of the electric shock” value in the data set with mice [5] is “does not modify the convulsing effects of the electric shock”. In the data set on mice [6] (mice, 128 and 512 mg/kg), the spontaneous motility result is listed as “causes a reduction in the (spontaneous) motor activity of the mice”. Also, the “motility reduced” value in the data set with mice [7] was “does not cause a resumption of the exploring activity of mice accustomed to their environment”. For the same molecule, the “motor recovery after hypoxia/anoxia by pressure reduction” value in the data set on mice [8] is “does not produce an improvement in the motor recovery of mice”. Besides, the aggressiveness entry in the data set with mice [12] is “reduces the number of fights”. Moreover, the “psychopharmacological profile / conclusion” value with central nervous system (mouse, in vivo) was “sedative agent”. Also, the clinical result in the data set with man is on record as “used clinically with success as a sedative”.
In the case of `CC(C(=O)NO)C(=O)N(c1ccccc1)c1ccccc1` (centres unmarked) [CRL 40,438, 2-(N,N-Diphenylcarbamoyl)-propionohydroxamic acid], in the data set on mice [1] (i.p.), the “LD-O (maximum non-lethal dose)” value is listed as “greater than 1,024 mg/kg”. In addition, the apomorphine-induced stereotypies entry in the data set with rats [9] (high dose) is “boosting of the stereotypies induced by apomorphine”. The amphetamine-induced stereotypies entry in the data set with rats [10] (high dose) was “boosting of the stereotypies induced by apomorphine and by amphetamine”. Also, in the data set with mice [2], the reserpine-induced hypothermia result is listed as “moderately opposes hypothermia”; the reserpine-induced ptosis entry was “moderately opposes hypothermia and ptosis induced by reserpine”. Further, the oxotremorine-induced trembling result in the data set on mice [3] is “moderately opposes hypothermia and ptosis induced by reserpine, and the trembling movements caused by oxotremorine”. Also, in the data set with mice [6], the spontaneous motility result is on record as “moderate increase in the spontaneous motor activity”. Further, the “motility reduced” value in the data set with mice [7] is reported as “very marked stimulant effect where the motility has been reduced by habituation to the cage”. Further, the aggressiveness result with mice [12] is recorded as “reduces the aggressive behaviour of mice”. The “resumption of avoiding actions (prolonged avoidance test)” value in the data set with rats [13] is recorded as “an effect of the "anti-fatigue" type”. Further, the “resumption of avoiding actions (prolonged avoidance test)” value in the data set with rats [13] (i.p., 64, 128 and 256 mg/kg) is “causes a resumption of the avoidance behaviour”. Further, in the data set with central nervous system (high dose), the “stereotype movements (product alone)” value was “presence, at a high dose, of stereotype movements”. Moreover, the reactivity result with central nervous system (mice) is listed as “hyper-reactivity in mice”. Besides, in the data set with central nervous system (mouse, in vivo), the “psychopharmacological profile / conclusion” value is “effects of the excitation-inducing type; also recorded: activity of the anti-depressant type or of the psychostimulant type”.
